{"source": "patent US20250296953A1", "about": "“3,4-THIAZOLO-STEROIDS AND METHODS OF MAKING AND USING THE SAME” (Arkansas State University - Jonesboro, priority 2018, published 2025)", "key": {"HFF-1": {"system": "HFF-1", "assay": "Cytotoxicity assay (resazurin)", "type": "cell-based", "conditions": "Homo sapiens; HFF-1 cells; read-out: HFF-1 (IC50)"}, "LOX IMVI": {"system": "LOX IMVI", "assay": "Melanoma cytotoxicity assay (resazurin)", "type": "cell-based", "method": "(§1) Cytotoxicity Assay: Melanoma cells (˜4000 cells in each well) were incubated in a 96 well plates at 37° C. in 5% CO2 for 24 hours. Compounds were added in triplicates and the plate was further incubated for 24 hours. DMSO and dacarbazine were added as technical and positive controls respectively. Next day resazurin was added and the plate was further incubated for 6 hours followed by reading the plate at 544 nm (excitation) and 590 nm (emission) using BMG Labtech Fluostar Optima plate reader. IC50 values were determined by using Graphpad Prism.\n(§2) On day 1, the cell line trypsinized and centrifuged to form cell pellet. The pellet was diluted in media, then counted using Countess automated cell counter. Approximately 4000 cells (198 uL) per well plated in […]. A control well of 200 uL growth media was also prepared. Wells closest to plate perimeter were filled with 200 uL PBS to prevent inner well evaporation. The 96 well plates are incubated in 37° C. incubator at 5% CO2 for 24 hours.\n(§3) On day 2, compounds were added (in triplicate) along with DMSO/Dacarbazine controls (2 uL) added to bring wells to volume of 200 μL. The 96 well plates are incubated in 37° C. incubator at 5% CO2 for 24 hours.\n(§4) On day 3, 40 μL of 0.15 mg/ml reszurin solution added to wells. Samples were placed in a 37° C. incubator at 5% CO2 for 6 hours. Excitation and emission for fluorescence measured at 544 nm and 590 nm using BMG Labtech Fluostar Optima plate reader\n(§5) Percent viability determined by taking average of each triplicate well fluorescence and subtracting GM well reading to remove the background signal. This difference is then divided by the average of the negative control (DMSO) wells to determine percent viability.\n(§6) IC50s were determined by using cereal dilution of compound to determine viability. Viabilities and concentration of cells are analyzed in Graphpad Prism by creating sigmoidal curve graph, which will determine the IC50 concentration.\n(§7) We analyzed the ability of the thiazole-androstane derivatives to inhibit growth in various melanoma cell lines. The growth inhibition against melanoma cell lines of various compound is shown below in Tables 19 and 20. Inhibition results are reported as the IC50 concentration in μM of the indicated compound or as the percent viability […] of the indicated compound. NA=not available."}, "SK-MEL-5": {"system": "SK-MEL-5", "assay": "Melanoma cytotoxicity assay (resazurin)", "type": "cell-based", "conditions": "human, 24 h", "method": "as §1, §2, §3, §4, §5, §6, §7"}, "SK-MEL-28": {"system": "SK-MEL-28", "assay": "Melanoma cytotoxicity assay (resazurin)", "type": "cell-based", "method": "as §1, §2, §3, §4, §5, §6, §7"}, "SK-MEL-25": {"system": "SK-MEL-25", "assay": "Melanoma cytotoxicity assay (resazurin)", "type": "cell-based", "method": "as §1, §2, §3, §4, §5, §6, §7"}, "MALME-3M": {"system": "MALME-3M", "assay": "Melanoma cytotoxicity assay (resazurin)", "type": "cell-based", "conditions": "human, 24 h", "method": "as §2, §3, §4, §5, §6, §7"}, "HCT-15 (Colon Cancer)": {"system": "HCT-15 (Colon Cancer)", "assay": "NCI 60 one dose screen", "type": "cell-based, human"}, "SF-295": {"system": "SF-295", "assay": "NCI 60 one dose screen", "type": "cell-based, human"}, "NCI-H522 (NSCLC)": {"system": "NCI-H522 (NSCLC)", "assay": "NCI 60 one dose screen", "type": "cell-based, human", "conditions": "Non-small Cell Lung Cancer"}, "[1]": {"system": "60 different human tumor cell lines", "assay": "NCI Development Therapeutics Program 60 cell line screen, one dose", "type": "cell-based"}, "SF-539": {"system": "SF-539", "assay": "NCI 60 one dose screen", "type": "cell-based, human"}}}
{"compound": "C[C@]12CC[C@H]3[C@@H](CC=C4c5sc(Nc6ccc(F)cc6)nc5CC[C@@]43C)[C@@H]1CC[C@@H]2O", "note": "[IIIa.12, (1S,2R,13R,14S,17S,18S)-7-(4-fluoroanilino)-2,18-dimethyl-8-thia-6-azapentacyclo[11.7.0.02,10.05,9.014,18]icosa-5(9),6,10-trien-17-ol]", "values": [{"measurement": "IC50", "setting": "HFF-1", "value": 24, "unit": "µM"}, {"measurement": "IC50", "setting": "LOX IMVI; Homo sapiens, LOX IMVI melanoma cells", "value": 5.2, "unit": "µM"}, {"measurement": "LOX-IMVI (% viability)", "setting": "LOX IMVI; human, 24 h", "value": 12, "unit": "%"}, {"measurement": "SK-MEL-5 (% viability)", "setting": "SK-MEL-5", "value": 3.66, "unit": "%"}, {"measurement": "IC50", "setting": "SK-MEL-28; Homo sapiens, SK-MEL-28 melanoma cells", "value": 10, "unit": "µM"}, {"measurement": "SK-MEL-28 (% viability)", "setting": "SK-MEL-28; human, 24 h", "value": 2.35, "unit": "%"}, {"measurement": "IC50", "setting": "SK-MEL-25; Homo sapiens, SK-MEL-25 melanoma cells (head prints SK-25), read-out: SK-25 IC50", "value": 7, "unit": "µM"}, {"measurement": "SK-MEL-25 (% viability)", "setting": "SK-MEL-25; human, 24 h", "value": 7.33, "unit": "%"}, {"measurement": "MALME-3M (% viability)", "setting": "MALME-3M", "value": 35.97, "unit": "%"}]}
{"compound": "(1S,2R,13R,14S,18S)-7-(3-fluorophenyl)-2,18-dimethyl-8-thia-6-azapentacyclo[11.7.0.02,10.05,9.014,18]icosa-5(9),7,10-trien-17-one [II.12]", "values": [{"measurement": "Growth Percent", "setting": "HCT-15 (Colon Cancer)", "value": "−38.17", "unit": "%"}, {"measurement": "mean growth percent", "setting": "SF-295; SF-295 (CNS cancer panel), 10 μM", "value": "−18.91", "unit": "%"}, {"measurement": "Growth Percent", "setting": "SF-295; one dose, CNS Cancer, SF-295", "value": "−18.91", "unit": "%"}, {"measurement": "Growth Percent", "setting": "NCI-H522 (NSCLC)", "value": "−36.55", "unit": "%"}, {"measurement": "Growth Percent", "setting": "[1]; Breast Cancer, BT-549", "value": 23.16, "unit": "%"}, {"measurement": "Growth Percent", "setting": "[1]; Breast Cancer, HS 578T", "value": 27.43, "unit": "%"}, {"measurement": "Growth Percent", "setting": "[1]; Breast Cancer, MCF7", "value": 10.76, "unit": "%"}, {"measurement": "Growth Percent", "setting": "[1]; Breast Cancer, MDA-MB-231/ATCC", "value": 62.02, "unit": "%"}, {"measurement": "Growth Percent", "setting": "[1]; Breast Cancer, MDA-MB-468", "value": 29.20, "unit": "%"}, {"measurement": "Growth Percent", "setting": "[1]; Breast Cancer, T-47D", "value": 3.07, "unit": "%"}, {"measurement": "Growth Percent", "setting": "[1]; CNS Cancer, SF-268", "value": 52.39, "unit": "%"}, {"measurement": "Growth Percent", "setting": "[1]; CNS Cancer, SNB-19", "value": 60.01, "unit": "%"}, {"measurement": "Growth Percent", "setting": "[1]; CNS Cancer, SNB-75", "value": 44.61, "unit": "%"}, {"measurement": "Growth Percent", "setting": "[1]; CNS Cancer, U251", "value": 18.77, "unit": "%"}, {"measurement": "Growth Percent", "setting": "[1]; Colon Cancer, COLO 205", "value": 44.55, "unit": "%"}, {"measurement": "Growth Percent", "setting": "[1]; Colon Cancer, HCC-2998", "value": 79.47, "unit": "%"}, {"measurement": "Growth Percent", "setting": "[1]; Colon Cancer, HCT-116", "value": 0.51, "unit": "%"}, {"measurement": "Growth Percent", "setting": "[1]; Colon Cancer, HT29", "value": 5.21, "unit": "%"}, {"measurement": "Growth Percent", "setting": "[1]; Colon Cancer, KM12", "value": 46.48, "unit": "%"}, {"measurement": "Growth Percent", "setting": "[1]; Colon Cancer, SW-620", "value": 3.81, "unit": "%"}, {"measurement": "Growth Percent", "setting": "[1]; Leukemia, CCRF-CEM", "value": 15.82, "unit": "%"}, {"measurement": "Growth Percent", "setting": "[1]; Leukemia, HL-60(TB)", "value": 34.18, "unit": "%"}, {"measurement": "Growth Percent", "setting": "[1]; Leukemia, K-562", "value": 7.01, "unit": "%"}, {"measurement": "Growth Percent", "setting": "[1]; Leukemia, MOLT-4", "value": 5.82, "unit": "%"}, {"measurement": "Growth Percent", "setting": "[1]; Leukemia, RPMI-8226", "value": "−2.88", "unit": "%"}, {"measurement": "Growth Percent", "setting": "[1]; Leukemia, SR", "value": 5.11, "unit": "%"}, {"measurement": "Growth Percent", "setting": "[1]; Melanoma, LOX IMVI", "value": 1.34, "unit": "%"}, {"measurement": "Growth Percent", "setting": "[1]; Melanoma, M14", "value": 57.14, "unit": "%"}, {"measurement": "Growth Percent", "setting": "[1]; Melanoma, MALME-3M", "value": 37.62, "unit": "%"}, {"measurement": "Growth Percent", "setting": "[1]; Melanoma, MDA-MB-435", "value": 49.24, "unit": "%"}, {"measurement": "Growth Percent", "setting": "[1]; Melanoma, SK-MEL-2", "value": 32.06, "unit": "%"}, {"measurement": "Growth Percent", "setting": "[1]; Melanoma, SK-MEL-5", "value": 61.51, "unit": "%"}, {"measurement": "Growth Percent", "setting": "[1]; Melanoma, SK-MEL-28", "value": 48.00, "unit": "%"}, {"measurement": "Growth Percent", "setting": "[1]; Melanoma, UACC-62", "value": 34.85, "unit": "%"}, {"measurement": "Growth Percent", "setting": "[1]; Melanoma, UACC-257", "value": 77.45, "unit": "%"}, {"measurement": "Growth Percent", "setting": "[1]; Non-small Cell Lung Cancer, A549/ATCC", "value": 55.01, "unit": "%"}, {"measurement": "Growth Percent", "setting": "[1]; Non-small Cell Lung Cancer, EKVX", "value": 68.33, "unit": "%"}, {"measurement": "Growth Percent", "setting": "[1]; Non-small Cell Lung Cancer, HOP-62", "value": 50.54, "unit": "%"}, {"measurement": "Growth Percent", "setting": "[1]; Non-small Cell Lung Cancer, HOP-92", "value": 74.28, "unit": "%"}, {"measurement": "Growth Percent", "setting": "[1]; Non-small Cell Lung Cancer, NCI-H23", "value": 62.70, "unit": "%"}, {"measurement": "Growth Percent", "setting": "[1]; Non-small Cell Lung Cancer, NCI-H226", "value": 65.84, "unit": "%"}, {"measurement": "Growth Percent", "setting": "[1]; Non-small Cell Lung Cancer, NCI-H322M", "value": 69.34, "unit": "%"}, {"measurement": "Growth Percent", "setting": "[1]; Non-small Cell Lung Cancer, NCI-H460", "value": 53.88, "unit": "%"}, {"measurement": "Growth Percent", "setting": "[1]; Ovarian Cancer, IGROV1", "value": 0.60, "unit": "%"}, {"measurement": "Growth Percent", "setting": "[1]; Ovarian Cancer, NCI/ADR-RES", "value": 68.33, "unit": "%"}, {"measurement": "Growth Percent", "setting": "[1]; Ovarian Cancer, OVCAR-3", "value": 7.89, "unit": "%"}, {"measurement": "Growth Percent", "setting": "[1]; Ovarian Cancer, OVCAR-4", "value": 65.10, "unit": "%"}, {"measurement": "Growth Percent", "setting": "[1]; Ovarian Cancer, OVCAR-5", "value": 87.24, "unit": "%"}, {"measurement": "Growth Percent", "setting": "[1]; Ovarian Cancer, OVCAR-8", "value": 28.53, "unit": "%"}, {"measurement": "Growth Percent", "setting": "[1]; Ovarian Cancer, SK-OV-3", "value": 17.92, "unit": "%"}, {"measurement": "Growth Percent", "setting": "[1]; Prostate Cancer, DU-145", "value": 22.88, "unit": "%"}, {"measurement": "Growth Percent", "setting": "[1]; Prostate Cancer, PC-3", "value": 35.02, "unit": "%"}, {"measurement": "Growth Percent", "setting": "[1]; Renal Cancer, 786-0", "value": "−10.07", "unit": "%"}, {"measurement": "Growth Percent", "setting": "[1]; Renal Cancer, ACHN", "value": 11.90, "unit": "%"}, {"measurement": "Growth Percent", "setting": "[1]; Renal Cancer, CAKI-1", "value": 36.88, "unit": "%"}, {"measurement": "Growth Percent", "setting": "[1]; Renal Cancer, RXF 393", "value": "−22.47", "unit": "%"}, {"measurement": "Growth Percent", "setting": "[1]; Renal Cancer, SN12C", "value": 42.89, "unit": "%"}, {"measurement": "Growth Percent", "setting": "[1]; Renal Cancer, TK-10", "value": 24.03, "unit": "%"}, {"measurement": "Growth Percent", "setting": "[1]; Renal Cancer, UO-31", "value": 1.08, "unit": "%"}, {"measurement": "mean growth percent", "setting": "SF-539; SF-539 (CNS cancer panel), 10 μM", "value": "−33.43", "unit": "%"}, {"measurement": "Growth Percent", "setting": "SF-539; one dose, CNS Cancer, SF-539", "value": "−33.43", "unit": "%"}]}
